{
  "source": "paper PMC9090415",
  "about": "“Discovery of small molecule inhibitors of Plasmodium falciparum apicoplast DNA polymerase” (Journal of Enzyme Inhibition and Medicinal Chemistry, 2022)",
  "target": "T1, bacteriophage T4 DNA polymerase (Enterobacteria phage T4, UniProt P04415)",
  "T1 construct": "made in house",
  "T1 sequence (P04415 1-898)": "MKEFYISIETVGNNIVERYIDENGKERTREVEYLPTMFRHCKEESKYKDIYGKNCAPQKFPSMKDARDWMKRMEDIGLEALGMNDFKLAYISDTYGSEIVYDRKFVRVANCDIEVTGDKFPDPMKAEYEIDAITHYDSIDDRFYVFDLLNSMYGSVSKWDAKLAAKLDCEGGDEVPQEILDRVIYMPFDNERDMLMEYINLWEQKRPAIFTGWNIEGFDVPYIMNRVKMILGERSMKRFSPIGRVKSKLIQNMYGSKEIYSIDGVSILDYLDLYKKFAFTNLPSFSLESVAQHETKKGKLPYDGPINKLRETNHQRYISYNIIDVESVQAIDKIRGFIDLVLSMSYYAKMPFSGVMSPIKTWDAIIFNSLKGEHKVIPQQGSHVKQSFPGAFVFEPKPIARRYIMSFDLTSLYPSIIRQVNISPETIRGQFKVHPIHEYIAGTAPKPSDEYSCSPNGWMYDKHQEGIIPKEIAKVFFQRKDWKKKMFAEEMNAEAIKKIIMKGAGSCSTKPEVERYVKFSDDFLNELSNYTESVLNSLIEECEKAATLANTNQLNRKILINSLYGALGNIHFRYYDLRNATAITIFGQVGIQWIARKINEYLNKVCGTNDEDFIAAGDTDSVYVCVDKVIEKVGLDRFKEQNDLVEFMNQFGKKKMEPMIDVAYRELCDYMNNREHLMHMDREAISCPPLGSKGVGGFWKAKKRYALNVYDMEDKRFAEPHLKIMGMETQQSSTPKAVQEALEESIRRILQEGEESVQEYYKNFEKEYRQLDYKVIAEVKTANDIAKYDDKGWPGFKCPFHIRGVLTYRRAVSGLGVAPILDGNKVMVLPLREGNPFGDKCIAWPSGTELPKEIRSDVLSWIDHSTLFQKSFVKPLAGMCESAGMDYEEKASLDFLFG",
  "test": "Counter-screen against bacteriophage T4 DNA polymerase",
  "assay_type": "biochemical",
  "conditions": "DRC-2",
  "how_it_was_run": "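IC50 values come from dose-response testing of each compound against T4 DNA polymerase. This B-family polymerase was purified in-house and used as the counter-screen.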",
  "data": [
    {"compound": "O=C(O)CCS(=O)(=O)c1ccc(-c2ccc(S(=O)(=O)CCC(=O)O)cc2)cc1", "note": "[Molecule 32, OC(=O)CCS(=O)(=O)c1ccc(cc1)c1ccc(cc1)S(=O)(=O)CCC(=O)O]", "values": [
      {"measurement": "% inhibition T4 10'", "setting": "concentration 2.5", "value": -14, "unit": "%"},
      {"measurement": "% inhibition T4 40'", "setting": "concentration 20", "value": -22, "unit": "%"},
      {"measurement": "% inhibition T4 40'", "setting": "concentration 40", "value": -14, "unit": "%"},
      {"measurement": "% inhibition T4 90'", "setting": "concentration 5", "value": -25, "unit": "%"},
      {"measurement": "% inhibition T4 90'", "setting": "concentration 20", "value": -25, "unit": "%"},
      {"measurement": "% inhibition T4 90'", "setting": "concentration 40", "value": -17, "unit": "%"},
      {"measurement": "% inhibition T4 180'", "setting": "concentration 2.5", "value": -25, "unit": "%"},
      {"measurement": "% inhibition T4 180'", "setting": "concentration 40", "value": -22, "unit": "%"},
      {"measurement": "% inhibition T4 180'", "setting": "concentration 80", "value": -17, "unit": "%"}
    ]},
    {"compound": "O=[N+]([O-])c1ccc(/C=C/c2ccc3ccccc3n2)o1", "note": "[Molecule 21, O=N(=O)c1ccc(o1)/C=C/c1ccc2c(n1)cccc2]", "values": [
      {"measurement": "% inhibition T4 10'", "setting": "concentration 2.5", "value": 23, "unit": "%"},
      {"measurement": "% inhibition T4 10'", "setting": "concentration 5", "value": 25, "unit": "%"},
      {"measurement": "% inhibition T4 40'", "setting": "concentration 2.5", "value": 25, "unit": "%"},
      {"measurement": "% inhibition T4 40'", "setting": "concentration 20", "value": 37, "unit": "%"},
      {"measurement": "% inhibition T4 40'", "setting": "concentration 80", "value": 32, "unit": "%"},
      {"measurement": "% inhibition T4 90'", "setting": "concentration 2.5", "value": 23, "unit": "%"},
      {"measurement": "% inhibition T4 90'", "setting": "concentration 10", "value": 32, "unit": "%"},
      {"measurement": "% inhibition T4 90'", "setting": "concentration 80", "value": 37, "unit": "%"},
      {"measurement": "% inhibition T4 180'", "setting": "concentration 10", "value": 25, "unit": "%"},
      {"measurement": "% inhibition T4 180'", "setting": "concentration 40", "value": 37, "unit": "%"}
    ]},
    {"compound": "Cc1ccc(NC(=O)C2CCN(C(=O)c3cc4ccsc4[nH]3)CC2)c(Br)c1", "note": "[Molecule 14, O=C(C1CCN(CC1)C(=O)c1cc2c([nH]1)scc2)Nc1ccc(cc1Br)C]", "values": [
      {"measurement": "% inhibition T4 10'", "setting": "concentration 20", "value": 5, "unit": "%"},
      {"measurement": "% inhibition T4 10'", "setting": "concentration 40", "value": 10, "unit": "%"},
      {"measurement": "% inhibition T4 10'", "setting": "concentration 80", "value": 10, "unit": "%"},
      {"measurement": "% inhibition T4 40'", "setting": "concentration 20", "value": 5, "unit": "%"},
      {"measurement": "% inhibition T4 40'", "setting": "concentration 40", "value": 8, "unit": "%"},
      {"measurement": "% inhibition T4 40'", "setting": "concentration 80", "value": 10, "unit": "%"},
      {"measurement": "% inhibition T4 90'", "setting": "concentration 40", "value": 6, "unit": "%"},
      {"measurement": "% inhibition T4 90'", "setting": "concentration 80", "value": 8, "unit": "%"}
    ]},
    {"compound": "Cc1ccccc1C(=O)N1CCc2c(nc3cc(-c4ccccc4)[nH]n3c2=O)C1", "note": "[Molecule 41, Cc1ccccc1C(=O)N1CCc2c(C1)nc1n(c2=O)[nH]c(c1)c1ccccc1]", "values": [
      {"measurement": "% inhibition T4 10'", "setting": "concentration 2.5", "value": 10, "unit": "%"},
      {"measurement": "% inhibition T4 10'", "setting": "concentration 5", "value": 13, "unit": "%"},
      {"measurement": "% inhibition T4 10'", "setting": "concentration 10", "value": 5, "unit": "%"},
      {"measurement": "% inhibition T4 10'", "setting": "concentration 20", "value": -10, "unit": "%"},
      {"measurement": "% inhibition T4 10'", "setting": "concentration 40", "value": -26, "unit": "%"},
      {"measurement": "% inhibition T4 10'", "setting": "concentration 80", "value": -46, "unit": "%"},
      {"measurement": "% inhibition T4 40'", "setting": "concentration 2.5", "value": 10, "unit": "%"},
      {"measurement": "% inhibition T4 40'", "setting": "concentration 5", "value": 13, "unit": "%"},
      {"measurement": "% inhibition T4 40'", "setting": "concentration 10", "value": 5, "unit": "%"},
      {"measurement": "% inhibition T4 40'", "setting": "concentration 20", "value": -10, "unit": "%"},
      {"measurement": "% inhibition T4 40'", "setting": "concentration 40", "value": -26, "unit": "%"},
      {"measurement": "% inhibition T4 40'", "setting": "concentration 80", "value": -46, "unit": "%"}
    ]},
    {"compound": "O=C1c2ccccc2C(=O)N1Oc1ccc([N+](=O)[O-])c([N+](=O)[O-])c1", "note": "[Molecule 66, O=N(=O)c1cc(ccc1N(=O)=O)ON1C(=O)c2c(C1=O)cccc2]", "values": [
      {"measurement": "% inhibition T4 10'", "setting": "concentration 2.5", "value": -5, "unit": "%"},
      {"measurement": "% inhibition T4 10'", "setting": "concentration 5", "value": -4, "unit": "%"},
      {"measurement": "% inhibition T4 40'", "setting": "concentration 2.5", "value": -5, "unit": "%"},
      {"measurement": "% inhibition T4 90'", "setting": "concentration 5", "value": -4, "unit": "%"}
    ]},
    {"compound": "O=C1C(=Cc2ccccc2O)Oc2ccc(O)cc21", "note": "[KU0196475]", "values": [
      {"measurement": "% inhibition T4 10'", "setting": "concentration 80", "value": 34, "unit": "%"},
      {"measurement": "% inhibition T4 40'", "setting": "concentration 2.5", "value": 10, "unit": "%"},
      {"measurement": "% inhibition T4 40'", "setting": "concentration 5", "value": 10, "unit": "%"},
      {"measurement": "% inhibition T4 40'", "setting": "concentration 10", "value": 21, "unit": "%"},
      {"measurement": "% inhibition T4 90'", "setting": "concentration 10", "value": 21, "unit": "%"},
      {"measurement": "% inhibition T4 90'", "setting": "concentration 40", "value": 34, "unit": "%"}
    ]},
    {"compound": "O=C1N=C(Nc2cccc(Cl)c2Cl)S/C1=C\\c1ccco1", "note": "[Molecule 3, O=C1N=C(S/C/1=C\\c1ccco1)Nc1cccc(c1Cl)Cl]", "values": [
      {"measurement": "% inhibition T4 10'", "setting": "concentration 2.5", "value": 26, "unit": "%"},
      {"measurement": "% inhibition T4 10'", "setting": "concentration 5", "value": 29, "unit": "%"},
      {"measurement": "% inhibition T4 10'", "setting": "concentration 20", "value": 30, "unit": "%"},
      {"measurement": "% inhibition T4 10'", "setting": "concentration 40", "value": 29, "unit": "%"},
      {"measurement": "% inhibition T4 10'", "setting": "concentration 80", "value": 13, "unit": "%"},
      {"measurement": "% inhibition T4 40'", "setting": "concentration 2.5", "value": 26, "unit": "%"},
      {"measurement": "% inhibition T4 40'", "setting": "concentration 5", "value": 29, "unit": "%"},
      {"measurement": "% inhibition T4 40'", "setting": "concentration 20", "value": 30, "unit": "%"},
      {"measurement": "% inhibition T4 40'", "setting": "concentration 40", "value": 29, "unit": "%"},
      {"measurement": "% inhibition T4 40'", "setting": "concentration 80", "value": 13, "unit": "%"},
      {"measurement": "% inhibition T4 90'", "setting": "concentration 5", "value": 27, "unit": "%"},
      {"measurement": "% inhibition T4 90'", "setting": "concentration 20", "value": 30, "unit": "%"},
      {"measurement": "% inhibition T4 90'", "setting": "concentration 40", "value": 30, "unit": "%"},
      {"measurement": "% inhibition T4 180'", "setting": "concentration 10", "value": 29, "unit": "%"},
      {"measurement": "% inhibition T4 180'", "setting": "concentration 20", "value": 27, "unit": "%"},
      {"measurement": "% inhibition T4 180'", "setting": "concentration 40", "value": 30, "unit": "%"}
    ]},
    {"compound": "CC(NC(=O)Cc1cc(=O)[nH]c(SCc2cccc(Cl)c2)n1)c1ccccc1", "note": "(stereo not drawn) [Molecule 67, O=C(NC(c1ccccc1)C)Cc1nc(SCc2cccc(c2)Cl)[nH]c(=O)c1]", "values": [
      {"measurement": "% inhibition T4 10'", "setting": "concentration 10", "value": 19, "unit": "%"},
      {"measurement": "% inhibition T4 10'", "setting": "concentration 20", "value": 18, "unit": "%"},
      {"measurement": "% inhibition T4 10'", "setting": "concentration 80", "value": 31, "unit": "%"},
      {"measurement": "% inhibition T4 40'", "setting": "concentration 2.5", "value": -9, "unit": "%"},
      {"measurement": "% inhibition T4 40'", "setting": "concentration 10", "value": 19, "unit": "%"},
      {"measurement": "% inhibition T4 40'", "setting": "concentration 20", "value": 19, "unit": "%"},
      {"measurement": "% inhibition T4 40'", "setting": "concentration 40", "value": 31, "unit": "%"},
      {"measurement": "% inhibition T4 90'", "setting": "concentration 2.5", "value": -9, "unit": "%"},
      {"measurement": "% inhibition T4 90'", "setting": "concentration 10", "value": 18, "unit": "%"},
      {"measurement": "% inhibition T4 90'", "setting": "concentration 20", "value": 18, "unit": "%"}
    ]}
  ]
}
